The test system of test [1] is HC110-R. It counts as cell-based, Haemonchus contortus. To be noted: for α-LTX-induced increase in [Ca2+]i after preincubation: substance removed, then 75 nM α-LTX. As for the experimental part: (§1) The intracellular free Ca^2+ concentration [Ca^2+]i was measured in COS-7 and HEK293 cells transiently transfected with the HC110-R-EGFP or β2-AR-EGFP construct using the calcium imaging method (see also FIG. 11). In each case 2×10^5 COS-7 and HEK293 cells were applied to a 42 mm cover glass coated with 1% gelatine in 55 mm tissue culture dishes with 5 ml of DMEM medium (with 10% FCS and pen/strep). The transfection took place with the aid of the non-liposomal transfection reagent FuGENE 6 (Roche Molecular Biochemicals, Mannheim). […] Constructs of the HC110-R full-length clone with a GFP tag fused in the correct reading frame, and the complete cDNA of the β2-adrenergic receptor which had likewise been provided with a GFP tag at the 3′ end, were transfected.
(§2) After the incubation, the cells loaded with Fura-2/AM were examined under an inverted microscope (Zeiss, Axiovert, Germany) and, in parallel with this, in a digital imaging fluorescence microscope (PTI) and differentiated into transfected and untransfected cells at a wavelength of 440 and 490 nm respectively. On average, 5-7 transfected and non transfected cells were selected by fixing an ROI (region of interest). The extinction was measured at 340 nm (calcium-bound Fura-2/AM) and 380 nm (free Fura-2/AM), and the emission was measured at 510 nm. Evaluation took place using the Image Master 1.x software by forming the quotient of 340:510 nm, 380:510 nm and the ratio of 340/380:510 nm (background corrected images) as a function of the agent added.
Agents were always added 6 min after starting the measurement by removing an appropriate volume of Na^+ HBS buffer and pipetting the agent directly into the sample vessel for a further 30 to 50 min. The total volume in the sample vessel was constant at 1.5 ml throughout the experiment. […] Addition of CdCl2 and nifedipine took place immediately at the start of the experiment and before addition of α-LTX, and EGTA was added both at the start of the experiment and 4 min after the addition of α-LTX. Dissolved α-LTX was present in a concentration of 300 nM in 50 mM tris-HCl, pH 8.0; BAY 44-4400 was initially dissolved in pure DMSO (stock solutions between 0.004 and 10 μg/ml). The stock solutions were adjusted to the required concentration in the Na^+ HBS buffer. The maximum amount of the active substance BAY 44-4400 which could be dissolved at a final concentration of 0.1% DMSO was found by setting up serial dilutions in Na^+ HBS.
The data were analyzed using the Excel 98 table calculation programme. The results are derived from at least 2-4 reproduced experiments on in each case 4-8 transfected and un-transfected cells.

The test system of test [2] is HC110-R. Kind of test: Ca2+ imaging of HEK-293 cells expressing HC110-R-Myc/His. The test is classed as cell-based, Haemonchus contortus. To be noted: stably expressing cells; 400 ng/ml added 6 min before 75 nM α-LTX.
Another test has as its system nematodes. The test can be described thus: Anthelmintic / neuropharmacological activity on nematodes.
Test [3] is described as follows: Ca2+ imaging, arecoline stimulation of untransfected HEK-293 cells. The test is classed as cell-based, human. To be noted: 1 mM arecoline; absence of BAY44-4400.
In test [4] the test system is endogenous, natural muscarinic acetylcholine receptors. Kind of test: Ca2+ imaging, carbachol stimulation of untransfected HEK-293 cells. The test is classed as cell-based, human. To be noted: 1 mM carbachol; absence of BAY44-4400.
Test [5] deals with T1, mouse β2-adrenergic receptor (Mus musculus, UniProt P18762).
T1 construct: was fused with a C-terminal EGFP tag by amplifying the full-length cDNA with the P117 mouse 2AR XhoI 5′ primer; expressed in transfected cells; host or cells: HEK-293, transient (pEGFP-N3)
Kind of test: Ca2+ imaging of HEK-293 cells transfected with β2-R-GFP (control). It counts as cell-based. To be noted: immediately after addition. The method, then: as §1, §2
Agents were always added 6 min after starting the measurement by removing an appropriate volume of Na^+ HBS buffer and pipetting the agent directly into the sample vessel for a further 30 to 50 min. The total volume in the sample vessel was constant at 1.5 ml throughout the experiment. […] Addition of CdCl2 and nifedipine took place immediately at the start of the experiment and before addition of α-LTX, and EGTA was added both at the start of the experiment and 4 min after the addition of α-LTX. […]
The data were analyzed using the Excel 98 table calculation programme. […]

Values joined by “and” are separate entries in the source; they are usually repeats but may differ in a detail not shown here. Equal values may be shown once. “Also recorded” adds a separate entry of the source. Read-outs that look alike come from different tables or passages of the source.

T1 sequence (P18762 whole entry, the tested form may be a part): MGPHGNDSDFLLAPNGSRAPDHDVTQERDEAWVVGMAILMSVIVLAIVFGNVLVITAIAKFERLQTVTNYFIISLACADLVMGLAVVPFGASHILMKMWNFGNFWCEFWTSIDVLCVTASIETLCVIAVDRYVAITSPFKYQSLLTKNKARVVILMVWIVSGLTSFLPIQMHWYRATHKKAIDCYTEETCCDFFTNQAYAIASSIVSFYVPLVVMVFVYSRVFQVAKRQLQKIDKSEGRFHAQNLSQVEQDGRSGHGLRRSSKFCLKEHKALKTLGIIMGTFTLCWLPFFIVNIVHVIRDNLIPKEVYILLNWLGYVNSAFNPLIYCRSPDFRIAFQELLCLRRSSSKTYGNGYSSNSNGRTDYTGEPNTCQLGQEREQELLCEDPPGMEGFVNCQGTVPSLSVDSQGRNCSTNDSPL

Take `O=C(O)CN(CCOCCOCCN(CC(=O)O)CC(=O)O)CC(=O)O` [EGTA]: the “α-LTX-induced increase in [Ca2+]i with extracellular Ca2+ removed” value in the test with HC110-R [1] (2 mM EGTA before or after addition of α-LTX) is on record as “only a small increase”.
Consider `CC(C)C[C@@H]1C(=O)O[C@@H](Cc2ccccc2)C(=O)N(C)[C@H](CC(C)C)C(=O)O[C@@H](C)C(=O)N(C)[C@H](CC(C)C)C(=O)O[C@@H](Cc2ccccc2)C(=O)N(C)[C@H](CC(C)C)C(=O)O[C@@H](C)C(=O)N1C` [PF1022-001, cyclo(-L-Lac-D-MeLeu-L-PhLac-D-Me-Leu-)2], for which the “α-LTX-induced increase in [Ca2+]i in presence of substance” value in the test with HC110-R [1] (4 ng/ml added 6 min before 75 nM α-LTX) is 103 ± 11.5 nM; in the test on HC110-R [1] (4 ng/ml added 6 min before 75 nM α-LTX, listed as optical antipode) it was 67 nM; with HC110-R [1] (400 ng/ml added 6 min before 75 nM α-LTX), 112+14.3 nM; in the test with HC110-R [2] it was 209 ± 33.4 nM. The “change in [Ca2+]i after preincubation with substance alone” value in the test with HC110-R [1] (4 ng/ml or 400 ng/ml, 90 min preincubation, no α-LTX) is “no change in [Ca^2+]i”. In addition, the “α-LTX-induced increase in [Ca2+]i after preincubation” value was 102 ± 6.4 nM in the test on HC110-R [1] (4 ng/ml, 90 min preincubation); 109 ± 8.4 nM and 110 nM with HC110-R [1] (400 ng/ml, 90 min preincubation). Also, the “Ca2+ response to substance alone” value with HC110-R [1] (400 ng/ml where stated, no α-LTX, up to 50 min or 90 min preincubation) was “neither the very effective nematicide BAY44-4400 nor the virtually ineffective antipode PF1022-001 induces a Ca^2+ response”. Moreover, in the test on HC110-R [1] (400 ng/ml, 90 minutes preincubation, 6 minutes after 75 nM α-LTX), the “reduction of α-LTX-induced Ca2+ increase” value is 59%. In addition, the “Ca2+-mediated response to substance alone” value in the test with HC110-R [1] (100, 300 or 400 ng/ml and 1 or 10 μg/ml, 50 min, untransfected and HC110-R-GFP-transfected cells) was “At no concentration was a Ca^2+-mediated response detectable”. For the same compound, the “α-LTX-induced increase in Ca2+ at increased concentration of substance” value with HC110-R [1] (concentration above 4 ng/ml, added 6 minutes before 75 nM α-LTX) was determined as 20 nM. Moreover, the “anthelmintic / nematicidal activity in words” value in the test on nematodes is given as “has no anthelmintic activity; also recorded: virtually ineffective”.
`COC(=O)C1=CCCN(C)C1` [arecoline]: in test [3], the “arecoline-induced increase in Ca2+” value amounted to 27 ± 3.5 nM.
Turning to `C[N+](C)(C)CCOC(N)=O.[Cl-]` [carbachol, carbamylcholine chloride], the “carbachol-induced increase in [Ca2+]i” value in test [4] is on record as 53+6.8 nM.
For `CC(C)NCC(O)c1ccc(O)c(O)c1` (stereo not shown) [isoproterenol], in test [5], the “Ca2+ response to isoproterenol” value is recorded as “significant Ca^2+ response”.
Consider `COC(=O)C1=C(C)NC(C)=C(C(=O)OC)C1c1ccccc1[N+](=O)[O-]` [nifedipine], for which the “second α-LTX-induced increase in [Ca2+]i” value in the test with HC110-R [1] (15 μM nifedipine) was found to be 30 ± 5.4 nM.
As to `C1CNCCN1` [piperazine], the “change in Ca2+ balance, piperazine alone” value with HC110-R [1] (10 μM piperazine, untransfected and HC110-R-GFP-transfected cells) is listed as “no change in the Ca^2+ balance”. Also, the “effect of piperazine on activity of PF1022A/BAY44-4400” value with Heterakis spumosa was “synergistically enhances the effect of PF1022A/BAY44-4400”.
